The target in one assay is T1, c-MER (Homo sapiens, UniProt Q12866).
T1 sequence (Q12866 21-999): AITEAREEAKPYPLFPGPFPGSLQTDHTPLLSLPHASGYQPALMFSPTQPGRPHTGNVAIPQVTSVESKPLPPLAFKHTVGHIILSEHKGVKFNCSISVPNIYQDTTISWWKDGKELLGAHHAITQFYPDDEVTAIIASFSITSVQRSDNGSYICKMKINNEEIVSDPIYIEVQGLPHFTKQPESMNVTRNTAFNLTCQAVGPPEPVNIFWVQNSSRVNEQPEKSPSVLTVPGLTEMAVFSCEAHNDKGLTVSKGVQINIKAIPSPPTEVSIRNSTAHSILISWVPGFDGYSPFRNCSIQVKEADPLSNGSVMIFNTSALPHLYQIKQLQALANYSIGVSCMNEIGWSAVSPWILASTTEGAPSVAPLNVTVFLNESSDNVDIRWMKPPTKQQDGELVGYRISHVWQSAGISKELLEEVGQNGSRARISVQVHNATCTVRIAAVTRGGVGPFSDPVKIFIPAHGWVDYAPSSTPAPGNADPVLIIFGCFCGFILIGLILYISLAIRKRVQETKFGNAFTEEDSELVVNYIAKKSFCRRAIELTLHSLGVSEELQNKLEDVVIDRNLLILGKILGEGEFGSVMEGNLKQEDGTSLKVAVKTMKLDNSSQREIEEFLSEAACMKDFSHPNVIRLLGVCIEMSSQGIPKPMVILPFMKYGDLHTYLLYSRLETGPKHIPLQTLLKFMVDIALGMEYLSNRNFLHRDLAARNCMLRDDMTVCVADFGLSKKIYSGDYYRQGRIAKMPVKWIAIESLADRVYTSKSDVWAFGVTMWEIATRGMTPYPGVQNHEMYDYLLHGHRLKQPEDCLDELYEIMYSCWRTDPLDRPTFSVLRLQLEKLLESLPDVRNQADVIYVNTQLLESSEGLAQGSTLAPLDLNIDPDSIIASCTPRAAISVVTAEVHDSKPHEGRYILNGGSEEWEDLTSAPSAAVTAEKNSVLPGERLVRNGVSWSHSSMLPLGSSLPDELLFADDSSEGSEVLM
Put plainly: HotSpot Kinase Assay, c-MER.

A further assay concerns the target c-MET (Homo sapiens, UniProt P08581). The experiment in a line: HotSpot Kinase Assay, c-MET.
For a further assay, the target named is T2, TYRO3/SKY (Homo sapiens, UniProt Q06418).
T2 sequence (Q06418 41-890): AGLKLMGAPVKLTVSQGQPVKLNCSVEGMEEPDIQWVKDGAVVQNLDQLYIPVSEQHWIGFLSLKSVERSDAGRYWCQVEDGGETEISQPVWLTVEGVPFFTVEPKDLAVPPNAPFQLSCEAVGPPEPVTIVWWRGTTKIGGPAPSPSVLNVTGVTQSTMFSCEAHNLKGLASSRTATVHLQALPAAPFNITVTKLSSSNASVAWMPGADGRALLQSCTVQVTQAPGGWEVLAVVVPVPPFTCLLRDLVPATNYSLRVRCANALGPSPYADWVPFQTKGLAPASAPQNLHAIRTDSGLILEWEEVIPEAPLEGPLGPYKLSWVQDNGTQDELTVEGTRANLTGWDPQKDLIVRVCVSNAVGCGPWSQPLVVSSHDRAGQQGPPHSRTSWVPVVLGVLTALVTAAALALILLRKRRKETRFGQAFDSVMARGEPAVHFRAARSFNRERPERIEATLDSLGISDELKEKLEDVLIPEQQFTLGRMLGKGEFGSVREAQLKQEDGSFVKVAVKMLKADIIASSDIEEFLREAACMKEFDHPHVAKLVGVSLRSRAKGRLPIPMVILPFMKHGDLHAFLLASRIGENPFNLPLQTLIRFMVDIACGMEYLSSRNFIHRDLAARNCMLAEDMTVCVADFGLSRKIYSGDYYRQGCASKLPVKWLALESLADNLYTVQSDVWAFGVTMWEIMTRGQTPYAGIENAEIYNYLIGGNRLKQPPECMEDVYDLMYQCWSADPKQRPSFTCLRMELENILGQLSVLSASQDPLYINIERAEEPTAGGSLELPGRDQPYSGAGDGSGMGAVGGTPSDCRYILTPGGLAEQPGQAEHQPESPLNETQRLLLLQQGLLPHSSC
Put plainly: HotSpot Kinase Assay, TYRO3/SKY.

Another assay has as its target c-Kit (Homo sapiens, UniProt P10721). The experiment in a line: HotSpot Kinase Assay, c-Kit.
For the next assay, the target named is KDR/VEGFR2 (Homo sapiens, UniProt P35968). Put plainly: HotSpot Kinase Assay, KDR/VEGFR2.
In the next assay the target is EPHA2 (Homo sapiens, UniProt P29317). The experiment in a line: HotSpot Kinase Assay, EPHA2.
The target in another assay is DDR1 (Homo sapiens, UniProt Q08345). Put plainly: HotSpot Kinase Assay, DDR1.
Another assay addresses LOK/STK10 (Homo sapiens, UniProt O94804). Put plainly: HotSpot Kinase Assay, LOK/STK10.
A further assay deals with FMS (Homo sapiens, UniProt P07333). The experiment in a line: HotSpot Kinase Assay, FMS.
The next assay concerns the target T3, AXL (Homo sapiens, UniProt P30530).
T3 sequence (P30530 26-894): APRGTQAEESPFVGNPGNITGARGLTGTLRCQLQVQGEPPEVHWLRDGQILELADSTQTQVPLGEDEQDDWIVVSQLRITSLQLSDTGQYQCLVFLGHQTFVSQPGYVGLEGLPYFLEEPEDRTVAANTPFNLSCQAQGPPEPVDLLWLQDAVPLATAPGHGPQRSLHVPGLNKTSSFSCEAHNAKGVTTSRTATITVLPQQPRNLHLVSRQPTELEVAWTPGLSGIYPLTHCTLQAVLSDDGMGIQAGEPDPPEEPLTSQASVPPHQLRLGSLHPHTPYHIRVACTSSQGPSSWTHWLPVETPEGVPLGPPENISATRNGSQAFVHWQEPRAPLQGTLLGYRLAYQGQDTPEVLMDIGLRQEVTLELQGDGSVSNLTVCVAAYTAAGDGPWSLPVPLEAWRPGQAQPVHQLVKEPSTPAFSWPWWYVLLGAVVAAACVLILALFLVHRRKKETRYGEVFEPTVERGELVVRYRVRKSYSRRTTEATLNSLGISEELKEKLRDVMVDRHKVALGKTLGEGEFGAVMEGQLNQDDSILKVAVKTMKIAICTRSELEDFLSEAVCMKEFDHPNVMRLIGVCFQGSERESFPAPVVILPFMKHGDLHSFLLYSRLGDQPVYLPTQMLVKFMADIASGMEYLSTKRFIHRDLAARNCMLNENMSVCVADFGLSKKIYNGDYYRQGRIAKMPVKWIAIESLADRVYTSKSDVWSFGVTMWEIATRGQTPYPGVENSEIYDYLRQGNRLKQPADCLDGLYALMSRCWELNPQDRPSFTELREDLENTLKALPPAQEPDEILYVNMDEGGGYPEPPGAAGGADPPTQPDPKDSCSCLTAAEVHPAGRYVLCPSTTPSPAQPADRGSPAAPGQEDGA
Put plainly: HotSpot Kinase Assay, AXL.

Some results are limits rather than exact numbers.

Chain of DDR1 (Q08345 19-913): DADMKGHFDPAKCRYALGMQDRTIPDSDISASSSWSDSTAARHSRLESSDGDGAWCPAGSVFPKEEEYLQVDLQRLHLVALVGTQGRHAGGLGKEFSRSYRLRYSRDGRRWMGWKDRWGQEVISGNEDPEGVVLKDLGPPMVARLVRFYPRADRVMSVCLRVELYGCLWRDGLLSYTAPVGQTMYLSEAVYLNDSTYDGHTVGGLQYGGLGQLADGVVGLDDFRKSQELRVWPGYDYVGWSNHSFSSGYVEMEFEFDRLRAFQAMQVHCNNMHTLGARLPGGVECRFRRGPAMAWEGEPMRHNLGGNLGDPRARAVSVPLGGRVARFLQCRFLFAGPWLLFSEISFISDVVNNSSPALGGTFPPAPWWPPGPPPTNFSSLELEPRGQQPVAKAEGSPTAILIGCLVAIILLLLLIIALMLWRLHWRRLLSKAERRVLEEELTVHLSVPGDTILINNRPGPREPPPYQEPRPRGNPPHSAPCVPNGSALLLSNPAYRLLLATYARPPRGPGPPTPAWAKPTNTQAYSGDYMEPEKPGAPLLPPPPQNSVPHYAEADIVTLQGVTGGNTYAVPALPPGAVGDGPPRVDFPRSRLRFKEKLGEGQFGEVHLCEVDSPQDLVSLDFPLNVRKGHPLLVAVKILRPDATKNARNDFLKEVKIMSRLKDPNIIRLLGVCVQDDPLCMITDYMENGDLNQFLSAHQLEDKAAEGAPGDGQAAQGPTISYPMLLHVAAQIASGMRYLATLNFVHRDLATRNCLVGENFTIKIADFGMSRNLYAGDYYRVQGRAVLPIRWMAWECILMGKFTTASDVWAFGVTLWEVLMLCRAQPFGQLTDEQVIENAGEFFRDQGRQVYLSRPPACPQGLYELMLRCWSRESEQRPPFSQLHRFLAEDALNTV
Chain of c-MET (P08581 25-1390): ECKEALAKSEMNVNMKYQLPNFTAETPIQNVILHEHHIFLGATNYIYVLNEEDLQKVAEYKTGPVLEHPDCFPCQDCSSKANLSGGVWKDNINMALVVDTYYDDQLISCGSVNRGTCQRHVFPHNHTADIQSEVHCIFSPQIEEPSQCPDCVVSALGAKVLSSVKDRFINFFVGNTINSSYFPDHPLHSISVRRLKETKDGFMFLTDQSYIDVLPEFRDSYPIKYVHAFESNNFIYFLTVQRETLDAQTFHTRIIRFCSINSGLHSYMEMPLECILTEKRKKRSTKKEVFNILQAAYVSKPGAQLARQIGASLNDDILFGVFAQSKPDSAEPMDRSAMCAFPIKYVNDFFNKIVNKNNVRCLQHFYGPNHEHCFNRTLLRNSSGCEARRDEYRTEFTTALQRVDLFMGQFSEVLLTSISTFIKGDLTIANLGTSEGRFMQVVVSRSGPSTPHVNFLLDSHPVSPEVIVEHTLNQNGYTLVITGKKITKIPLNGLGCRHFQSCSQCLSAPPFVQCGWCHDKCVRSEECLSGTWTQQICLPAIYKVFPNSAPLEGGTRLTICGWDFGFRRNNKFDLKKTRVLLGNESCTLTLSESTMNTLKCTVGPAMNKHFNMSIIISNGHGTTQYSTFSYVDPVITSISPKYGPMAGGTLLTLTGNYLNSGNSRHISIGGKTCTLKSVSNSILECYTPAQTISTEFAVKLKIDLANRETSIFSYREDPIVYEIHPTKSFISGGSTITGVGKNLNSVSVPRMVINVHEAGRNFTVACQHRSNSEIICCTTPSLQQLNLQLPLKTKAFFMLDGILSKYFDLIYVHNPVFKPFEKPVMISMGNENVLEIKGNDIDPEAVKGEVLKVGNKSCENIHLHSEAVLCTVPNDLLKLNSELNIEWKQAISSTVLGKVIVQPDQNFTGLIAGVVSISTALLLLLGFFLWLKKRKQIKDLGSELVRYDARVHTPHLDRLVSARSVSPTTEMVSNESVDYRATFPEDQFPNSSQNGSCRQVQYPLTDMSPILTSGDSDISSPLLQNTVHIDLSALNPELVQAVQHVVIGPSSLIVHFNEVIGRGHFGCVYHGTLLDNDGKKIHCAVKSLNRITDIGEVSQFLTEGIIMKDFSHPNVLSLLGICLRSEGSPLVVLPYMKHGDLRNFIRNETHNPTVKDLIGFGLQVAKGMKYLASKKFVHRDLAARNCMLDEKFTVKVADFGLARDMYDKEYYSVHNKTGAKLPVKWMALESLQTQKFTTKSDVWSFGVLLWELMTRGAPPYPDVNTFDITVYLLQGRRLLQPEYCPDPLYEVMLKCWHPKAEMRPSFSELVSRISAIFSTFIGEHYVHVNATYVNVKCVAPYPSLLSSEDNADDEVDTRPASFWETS
Chain of FMS (P07333 20-972): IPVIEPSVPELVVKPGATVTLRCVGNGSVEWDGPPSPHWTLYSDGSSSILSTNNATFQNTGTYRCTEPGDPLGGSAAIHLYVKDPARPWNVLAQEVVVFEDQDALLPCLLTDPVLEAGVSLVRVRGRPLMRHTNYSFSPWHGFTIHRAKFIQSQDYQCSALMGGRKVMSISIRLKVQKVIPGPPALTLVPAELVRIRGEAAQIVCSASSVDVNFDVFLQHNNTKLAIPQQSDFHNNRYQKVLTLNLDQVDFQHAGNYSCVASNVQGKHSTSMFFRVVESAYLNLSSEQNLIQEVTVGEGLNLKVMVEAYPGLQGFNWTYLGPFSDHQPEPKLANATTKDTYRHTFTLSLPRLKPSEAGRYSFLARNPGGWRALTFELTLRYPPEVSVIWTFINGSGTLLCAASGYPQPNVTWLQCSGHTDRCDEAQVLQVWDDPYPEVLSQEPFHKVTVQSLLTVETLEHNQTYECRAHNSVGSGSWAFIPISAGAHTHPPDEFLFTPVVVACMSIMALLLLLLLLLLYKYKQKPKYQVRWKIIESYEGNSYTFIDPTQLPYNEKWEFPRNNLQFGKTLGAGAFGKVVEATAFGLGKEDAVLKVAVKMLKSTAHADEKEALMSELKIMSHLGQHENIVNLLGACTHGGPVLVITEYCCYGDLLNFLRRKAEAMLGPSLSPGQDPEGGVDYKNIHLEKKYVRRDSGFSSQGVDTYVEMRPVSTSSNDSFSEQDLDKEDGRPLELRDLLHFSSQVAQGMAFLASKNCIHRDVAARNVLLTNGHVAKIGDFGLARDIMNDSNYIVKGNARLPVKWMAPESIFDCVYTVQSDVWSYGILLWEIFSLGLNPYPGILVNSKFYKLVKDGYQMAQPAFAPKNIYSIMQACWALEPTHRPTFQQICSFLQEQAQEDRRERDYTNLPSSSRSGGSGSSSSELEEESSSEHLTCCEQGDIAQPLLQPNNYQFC
Chain of KDR/VEGFR2 (P35968 20-1356): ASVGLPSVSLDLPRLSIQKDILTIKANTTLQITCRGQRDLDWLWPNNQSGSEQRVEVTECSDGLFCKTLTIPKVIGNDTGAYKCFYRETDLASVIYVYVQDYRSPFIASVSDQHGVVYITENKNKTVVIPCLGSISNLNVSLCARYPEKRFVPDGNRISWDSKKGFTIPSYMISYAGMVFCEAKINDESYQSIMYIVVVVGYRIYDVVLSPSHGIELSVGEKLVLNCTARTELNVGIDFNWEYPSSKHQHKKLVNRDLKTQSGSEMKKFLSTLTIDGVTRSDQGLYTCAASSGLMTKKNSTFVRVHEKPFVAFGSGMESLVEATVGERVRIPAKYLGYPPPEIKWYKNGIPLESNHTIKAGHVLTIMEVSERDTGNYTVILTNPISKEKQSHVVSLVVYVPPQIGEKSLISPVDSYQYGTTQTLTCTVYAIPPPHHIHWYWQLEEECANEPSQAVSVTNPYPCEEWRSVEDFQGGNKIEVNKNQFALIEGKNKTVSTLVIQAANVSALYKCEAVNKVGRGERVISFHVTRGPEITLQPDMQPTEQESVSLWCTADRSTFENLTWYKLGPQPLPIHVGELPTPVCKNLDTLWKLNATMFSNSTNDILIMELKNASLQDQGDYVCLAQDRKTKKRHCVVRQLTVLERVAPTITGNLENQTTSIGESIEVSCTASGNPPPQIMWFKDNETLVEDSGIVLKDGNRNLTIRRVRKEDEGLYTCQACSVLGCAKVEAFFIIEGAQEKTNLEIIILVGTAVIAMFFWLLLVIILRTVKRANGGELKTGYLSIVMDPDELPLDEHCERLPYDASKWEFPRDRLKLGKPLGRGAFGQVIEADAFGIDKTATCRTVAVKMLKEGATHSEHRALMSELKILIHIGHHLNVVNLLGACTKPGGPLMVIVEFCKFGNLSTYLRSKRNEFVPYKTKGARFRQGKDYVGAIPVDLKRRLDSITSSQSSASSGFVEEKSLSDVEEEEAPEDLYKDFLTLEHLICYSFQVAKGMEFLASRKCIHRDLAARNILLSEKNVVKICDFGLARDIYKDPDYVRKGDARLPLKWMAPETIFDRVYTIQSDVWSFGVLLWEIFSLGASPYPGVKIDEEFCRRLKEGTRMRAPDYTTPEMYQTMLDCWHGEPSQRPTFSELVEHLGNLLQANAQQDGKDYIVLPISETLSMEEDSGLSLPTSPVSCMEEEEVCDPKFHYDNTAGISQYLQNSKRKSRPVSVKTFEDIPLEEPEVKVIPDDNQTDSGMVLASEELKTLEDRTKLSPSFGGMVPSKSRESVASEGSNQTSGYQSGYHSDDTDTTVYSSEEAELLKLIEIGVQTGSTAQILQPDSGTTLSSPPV
Experimental for AXL: (§1) Specifically, for each reaction, kinase and substrate were mixed in a pH 7.5 buffer containing 20 mM HEPES, 10 mM MgCl2, 1 mM EGTA [Ethylene glycol-bis(2-aminoethylether)-N,N,N′,N′-tetraacetic acid], 0.02% Brij35, 0.02 mg/mL BSA (Bovine Serum Albumin), 0.1 mM Na3VO4, 2 mM DTT, and 1% DMSO. Compounds were then added to each reaction mixture. After a 20-min incubation, ATP (Sigma-Aldrich) and [γ-^33P] ATP (PerkinElmer) were added at a final total concentration of 100 μM. Reactions were carried out at room temperature for 2 hours and spotted onto P81 ion exchange cellulose chromatography paper (Whatman). […] The percent remaining kinase activity relative to a vehicle-containing (DMSO) kinase reaction was calculated for each kinase/inhibitor pair. […] IC50 values were calculated using Prism 5 (GraphPad).
Experimental for DDR1: as §1
Experimental for FMS: as §1
Experimental for KDR/VEGFR2: as §1
Experimental for LOK/STK10: as §1
Experimental for TYRO3/SKY: as §1
Experimental for c-Kit: as §1
Experimental for c-MET: as §1

On to `COc1cc2c(Oc3ccc(NC(=O)C4(C(=O)Nc5ccc(F)cc5)CC4)cc3)ccnc2cc1OC(=O)N1Cc2cn(S(C)(=O)=O)nc2C1` [Compound 1-16], for which the IC50 against c-MER is 100 to 1000 nM; against c-MET, less than 100 nM; at TYRO3/SKY it was greater than 1000 nM; at c-Kit, 100 to 1000 nM; at KDR/VEGFR2, greater than 1000 nM; on EPHA2, greater than 1000 nM. For the same compound, the IC50 on DDR1 is less than 100 nM; on LOK/STK10 it was greater than 1000 nM; at FMS, greater than 1000 nM; on AXL it was 100 to 1000 nM.

As to `COc1cc2c(Oc3ccc(NC(=O)C4(C(=O)Nc5ccc(F)cc5)CC4)cc3F)ncnc2cc1OC(=O)N1CCN(C)C[C@H]1C` [Compound 9-6, 4-(2-fluoro-4-(1-((4-fluorophenyl)carbamoyl)cyclopropane-1-carboxamido)phenoxy)-6-methoxyquinazolin-7-yl (R)-2,4-methylpiperazine-1-carboxylate], the IC50 was less than 100 nM against c-MER; less than 100 nM at c-MET; 100 to 1000 nM against TYRO3/SKY; 100 to 1000 nM against c-Kit; 100 to 1000 nM against KDR/VEGFR2; 100 to 1000 nM at EPHA2. Moreover, the IC50 on DDR1 is less than 100 nM; against LOK/STK10, greater than 1000 nM; on FMS, 100 to 1000 nM; against AXL, less than 100 nM.

In the case of `COc1cc2nccc(Oc3ccc(NC(=O)C4(C(=O)Nc5ccc(F)cc5)CC4)cc3)c2cc1OC(=O)N1CCNC[C@H]1C` [Compound 7-2], the IC50 against c-MER, at c-MET, on TYRO3/SKY, on c-Kit, against KDR/VEGFR2 and against EPHA2 was less than 100 nM throughout. Moreover, the IC50 against DDR1, against LOK/STK10, against FMS and against AXL was less than 100 nM throughout.

Take `COc1cc2c(Oc3ccc(NC(=O)C4(C(=O)Nc5ccc(F)cc5)CC4)cc3)ccnc2cc1OC(=O)N1CCC(F)(F)CC1` [Compound 1-13]: the IC50 at c-MER is 100 to 1000 nM; on c-MET, less than 100 nM; against TYRO3/SKY it was greater than 1000 nM; on c-Kit, 100 to 1000 nM; at KDR/VEGFR2 it was greater than 1000 nM; on EPHA2, greater than 1000 nM. In addition, the IC50 at DDR1 was less than 100 nM; against LOK/STK10 it was greater than 1000 nM; against FMS, greater than 1000 nM; against AXL, 100 to 1000 nM.

With `COc1cc2c(Oc3ccc(NC(=O)C4(C(=O)Nc5ccc(F)cc5)CC4)cc3F)ncnc2cc1OC(=O)N1CCNC[C@H]1C` [Compound 9-5], the IC50 against c-MER is 100 to 1000 nM; at c-MET it was less than 100 nM; against TYRO3/SKY it was 100 to 1000 nM; at c-Kit, 100 to 1000 nM; on KDR/VEGFR2 it was 100 to 1000 nM; on EPHA2 it was 100 to 1000 nM. Besides, the IC50 at DDR1 is less than 100 nM; against LOK/STK10, 100 to 1000 nM; on FMS, 100 to 1000 nM; at AXL, less than 100 nM.

For the compound `COc1cc2c(Oc3ccc(NC(=O)C4(C(=O)Nc5ccc(F)cc5)CC4)cc3)ccnc2cc1OC(=O)N1CCN(C)C[C@H]1C` [Compound 1-11, 4-(4-(1-((4-fluorophenyl)carbamoyl)cyclopropane-1-carboxamido)phenoxy)-6-methoxyquinolin-7-yl (R)-2,4-dimethylpiperazine-1-carboxylate], the IC50 is less than 100 nM on c-MER; less than 100 nM against c-MET; 100 to 1000 nM at TYRO3/SKY; less than 100 nM against c-Kit; greater than 1000 nM at KDR/VEGFR2; 100 to 1000 nM against EPHA2. The IC50 against DDR1 is less than 100 nM; at LOK/STK10 it was 100 to 1000 nM; on FMS it was less than 100 nM; against AXL, less than 100 nM.

As for `COc1cc2c(Oc3ccc(NC(=O)C4(C(=O)Nc5ccc(F)cc5)CC4)cc3)ccnc2cc1OC(=O)N1CCN(C)[C@H](C)C1` [Compound 2-2], the IC50 is less than 100 nM against c-MER; less than 100 nM on c-MET; 100 to 1000 nM at TYRO3/SKY; less than 100 nM against c-Kit; 100 to 1000 nM against KDR/VEGFR2; 100 to 1000 nM at EPHA2. Also, the IC50 against DDR1 was less than 100 nM; at LOK/STK10, 100 to 1000 nM; on FMS, less than 100 nM; against AXL, less than 100 nM.

On to `COc1cc2nccc(Oc3ccc(NC(=O)C4(C(=O)Nc5ccc(F)cc5)CC4)cc3)c2cc1OC(=O)N1CCN(C)C[C@H]1C` [Compound 7-3], for which the IC50 on c-MER was less than 100 nM; against c-MET, less than 100 nM; at TYRO3/SKY it was less than 100 nM; at c-Kit it was less than 100 nM; on KDR/VEGFR2, less than 100 nM; at EPHA2, 100 to 1000 nM. For the same compound, the IC50 at DDR1 was less than 100 nM; on LOK/STK10, 100 to 1000 nM; against FMS, less than 100 nM; on AXL it was less than 100 nM.

For the compound `COc1cc2c(Oc3ccc(NC(=O)C4(C(=O)Nc5ccc(F)cc5)CC4)cc3)ccnc2cc1OC(=O)N(C)C` [Compound 1-15], the IC50 on c-MER was 100 to 1000 nM; on c-MET, 100 to 1000 nM; on TYRO3/SKY, greater than 1000 nM; against c-Kit it was 100 to 1000 nM; against KDR/VEGFR2 it was greater than 1000 nM; on EPHA2, greater than 1000 nM. In addition, the half-inhibitory concentration (IC50) against DDR1 is less than 100 nM; on LOK/STK10, 100 to 1000 nM; against FMS, 100 to 1000 nM; on AXL, 100 to 1000 nM.

For the origin of these results see patent publication US11358949B2, “Carbamate and urea compounds as multikinase inhibitors” (ANGEX PHARMACEUTICAL, INC., priority 2017, dated 2022).
